Experimental data taken from US8735391B2, “Synthesis of functionalized octahydro-isoquinolin-1-one-8-carboxamides, octahydro-isoquinolin-1-one-8-carboxylic esters and analogs, and therapeutic methods” (University of Kansas, priority 2008, dated 2014).
Where two headings read alike, the source gives them in different places.

Assays:
KOR [1] = molecular target: T1, KOR (Homo sapiens, UniProt P41145); assay: Opioid secondary binding, KOR (Tables 4, 5, 8, 9)
MOR = MOR (Homo sapiens, UniProt P35372); assay: Opioid secondary binding, MOR (Tables 4, 5, 8); conditions: Opioid secondary binding activity for Formula 10 analogs; read-out: MOR, Ki
MOR, sequence (P35372 whole entry): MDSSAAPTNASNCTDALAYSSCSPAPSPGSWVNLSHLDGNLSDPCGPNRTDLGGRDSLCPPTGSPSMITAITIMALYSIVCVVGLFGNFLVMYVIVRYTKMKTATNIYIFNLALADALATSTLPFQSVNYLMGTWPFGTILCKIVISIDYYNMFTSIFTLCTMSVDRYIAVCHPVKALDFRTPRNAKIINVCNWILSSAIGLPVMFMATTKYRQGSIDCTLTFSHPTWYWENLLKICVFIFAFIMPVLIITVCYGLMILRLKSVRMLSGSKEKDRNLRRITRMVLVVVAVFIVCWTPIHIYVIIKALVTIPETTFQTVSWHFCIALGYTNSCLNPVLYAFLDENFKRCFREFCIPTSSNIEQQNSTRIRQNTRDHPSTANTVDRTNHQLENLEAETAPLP

DOR = DOR (Homo sapiens, UniProt P41143); assay: Opioid secondary binding, DOR (Table 4); conditions: Opioid secondary binding activity for Formula 10 analogs
DOR, sequence (P41143 whole entry): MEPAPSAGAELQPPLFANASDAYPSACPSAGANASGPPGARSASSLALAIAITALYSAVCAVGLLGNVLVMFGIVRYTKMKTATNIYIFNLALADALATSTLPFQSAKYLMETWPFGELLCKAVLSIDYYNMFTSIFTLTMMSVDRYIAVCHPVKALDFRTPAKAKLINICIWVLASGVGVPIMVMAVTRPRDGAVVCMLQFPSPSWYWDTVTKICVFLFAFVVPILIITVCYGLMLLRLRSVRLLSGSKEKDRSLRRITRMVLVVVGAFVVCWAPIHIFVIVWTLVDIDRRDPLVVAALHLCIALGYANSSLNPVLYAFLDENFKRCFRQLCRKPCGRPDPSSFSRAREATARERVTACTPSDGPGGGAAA

KOR [2] = molecular target: T1, KOR; assay: [35S]GTPγS binding functional agonist assay on membranes of CHO cells expressing hKOR (reference agonist U69593); assay type: biochemical; set-up: expressed in transfected cells; host or cells: CHO cells, stably transfected; crude membrane fractions; conditions: for KOR agonist (average percent efficacy relative to cognate agonist): test compound at 10 micromolar, N=4, reference agonist = 100%, CHO-cell line expressing hKOR
Description: The compounds prepared herein were tested for bioactivity with opioid receptors. Agonist assays: Data represent the percent efficacy (relative to cognate agonist) of the test compound at 10 micromolar. The response to a saturating concentration of a reference antagonist or to vehicle (usually none or negligible) is set to 0%. […] The response inhibition elicited by a saturating concentration of reference antagonist is set to 100%; the response inhibition (usually none or negligible) elicited by vehicle is set to 0%. The following tables provide data related to the bioactivity for opioid receptors of the compounds described herein.
Table 6 provides data that represent the average percent efficacy (N=4; relative to cognate agonist) of the test compound at 10 micromolar concentration. The response to a saturating concentration of cognate/reference agonist is set to 100%; the response to a saturating concentration of a reference antagonist or to vehicle (usually none or negligible) is set to 0%. All functional assays are performed on stably transfected CHO-cell lines expressing hKOR, hMOR or hDOR.
(§1) Serial dilutions of the test and reference compounds are made in binding buffer at 2× assay concentration (final assay concentrations ranging from 0.1 nM to 10 μM). Crude membrane fractions (1.8 to 3.5 cm2/well) (prepared from 10-cm plates by harvesting PBS-rinsed monolayers, resuspending and lysing in chilled, hypotonic 50 mM Tris-HCl, pH 7.4, centrifuging at 20,000×g, decanting the supernatant and storing at −80 degrees centigrade; typically, one 10-cm plate provides sufficient material for 24 wells) are resuspended in 1.2 ml of assay buffer containing 20 μM GDP, wheat germ agglutinin (WGA)-coated scintillation proximity beads (2.4 mg), and [35S]GTPγS (300 pM final). The suspension is then added (50 μl/well) to 50 μl of the 2× test or reference compounds (each concentration assayed in triplicate) in flexible transparent PET 96-well plates. The reaction plate is sealed and incubated for 90 min at room temperature, then centrifuged for 5 min at 216×g, and finally loaded into a Wallac MicroBeta TriLux counter. Non-specific [35S]GTPγS binding is assessed at the maximum concentration of reference agonist in the presence of 10 μM antagonist. The background signal is measured at 10 μM reference agonist in the presence of 10 μM unlabeled GTPγS. Raw data (dpm) representing total [35S]GTPγS binding (i.e., specific+non-specific binding) are calculated as a percentage of the maximum response by the reference agonist (in this case U69593).
as §1, with “GTPγS.” for “GTPγS. Raw data (dpm) representing total [35S]GTPγS binding (i.e., specific+non-specific binding) are calculated as a percentage of the maximum response by the reference agonist (in this case U69593).”

[3] = Opioid secondary binding activity for Formula 10 analogs, read-out: KOR, Ki

T1 sequence (P41145 whole entry): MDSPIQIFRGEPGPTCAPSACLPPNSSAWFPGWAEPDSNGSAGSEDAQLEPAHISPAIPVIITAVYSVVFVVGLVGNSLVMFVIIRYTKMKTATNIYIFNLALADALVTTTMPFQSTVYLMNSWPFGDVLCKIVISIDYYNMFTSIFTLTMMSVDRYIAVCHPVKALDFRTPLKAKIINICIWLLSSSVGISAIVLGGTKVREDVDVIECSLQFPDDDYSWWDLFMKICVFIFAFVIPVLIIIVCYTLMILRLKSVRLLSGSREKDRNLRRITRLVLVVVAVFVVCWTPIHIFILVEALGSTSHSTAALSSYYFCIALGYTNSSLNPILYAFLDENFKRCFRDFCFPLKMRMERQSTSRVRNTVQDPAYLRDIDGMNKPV

Row | Structure (SMILES) | Ki (KOR [1]; [3]) [µM] | Ki (MOR) [µM] | Ki (DOR) [µM] | KOR agonist (average percent efficacy relative to cognate agonist) (KOR [2]) [%] | Ki (KOR [1]) [µM] | Emax (KOR [2]; read-out: Emax values relative to U69593) [%] | Emax values relative to U69593 (KOR [2]; [35S]GTPγS data-fit top relative to reference agonist U69593) [%]
1 | COc1ccc(CN2CC[C@H]3C=CC[C@@H](C(=O)N4CCN(c5ccccc5)CC4)[C@H]3C2=O)cc1OC (racemic) [compound 8915] | 8.9 | 5.54 | 4.69 | 6.7 |  |  | 
2 | O=C(Nc1ccc(Cl)c(C(F)(F)F)c1)[C@@H]1CC=C[C@@H]2CCN(Cc3ccccc3)C(=O)[C@@H]21 (racemic) [compound 8620] |  | 3.55 |  |  | 0.0053 | 67 | 
3 | COc1ccc(CN2CC[C@H]3C=CC[C@@H](C(=O)Nc4ccccc4)[C@H]3C2=O)cc1OC (racemic) [compound 8942] | 3.06 | 3.52 | 4.61 | 5.4 |  |  | 
4 | O=C(Nc1ccccc1)[C@@H]1CC=C[C@@H]2CCN(Cc3ccc(Cl)c(Cl)c3)C(=O)[C@@H]21 (racemic) [compound 8941] | 0.259 | 2.7 | 1.11 | 79 |  |  | 
5 | Cc1cc(NC(=O)[C@@H]2CC=C[C@@H]3CCN(Cc4ccccc4)C(=O)[C@@H]32)ccc1Cl (racemic) [compound 11872] | 0.086 | 2.18 |  |  |  |  | 123
6 | CCCCN1CC[C@H]2C=CC[C@@H](C(=O)Nc3ccc(Cl)c(C(F)(F)F)c3)[C@H]2C1=O (racemic) [compound 8956] | 0.19 | 2.22 |  | 118.7 |  |  | 
7 | COc1ccc(CNC(=O)[C@@H]2CC=C[C@@H]3CCN(Cc4ccc(Cl)c(Cl)c4)C(=O)[C@@H]32)cc1 (racemic) [compound 8928] | 0.964 | 7.4 |  | 17.7 |  |  | 
8 | O=C(NCCc1ccccc1)[C@@H]1CC=C[C@@H]2CCN(Cc3ccccc3)C(=O)[C@@H]21 (racemic) [compound 8916] | 0.561 | 4.6 |  | 110.6 |  |  | 
9 | O=C1[C@H]2[C@H](C=CC[C@H]2C(=O)N2CCN(c3ccccc3)CC2)CCN1Cc1ccccc1 (racemic) [compound 8912] | 4.8 | 2.4 | 3.85 | 8 |  |  | 
10 | O=C(Nc1ccccc1)[C@@H]1CC=C[C@@H]2CCN(Cc3ccccc3)C(=O)[C@@H]21 (racemic) [compound 8937, 2-Benzyl-N-phenyl-1-oxo-1,2,3,4,4a,7,8,8a-octahydroisoquinoline-8-carboxamide] | 0.146 | 2.57 | 0.85 | 136.6 |  |  | 
